pEC50: −log10 of the molar value. Several values for one entry are separate records, joined by “and”; a condition that tells them apart may be missing. Identical values can stand only once. Like-named read-outs stand apart in the source and are kept apart here.
What was measured:
mock-transfected cells = assay: BRET2 β-arrestin recruitment time course, mock-transfected cells; assay type: cell-based, human; conditions: Fig 5c, 100μM ligand, listed as Ng
MRGPRX4 + RAMP1 = target: T1, MRGPRX4 + RAMP1 (Homo sapiens, UniProt Q96LA9); assay: BRET2 β-arrestin2 recruitment, MRGPRX4 with RAMP1; assay type: cell-based; conditions: RAMP1 coexpression vs MRGPRX4 alone (Fig. 5F)
T1 construct: expressed in transfected cells; host or cells: HEK293T
Description: The method for homogenous transfection of β-Arrestin and BRET^2 assay of β-Arrestin recruitment has been described previously ([51]). […] BRET^2 measurements were taken on the BioTek Synergy NEO2 microplate reader.
The BRET ratio for each sample was determined by calculating the ratio of the light intensity emitted by the GFP10 (515 nm) (acceptor) over the light intensity emitted by the RLuc3 (395 nm) (donor). Net BRET^2 was determined by subtracting the basal BRET^2 (β-arrestin-RLuc3 only) signal from the BRET^2 signals. All BRET values were normalized to the MRGPRX4-only condition.

MRGPRX4 [1] = system: MRGPRX4; parameters: method as in Cao et al. [23]; conditions: ref Cao et al. [23]; read-out: Ca2+ flux EC50; cited from earlier work
MRGPRX4 [2] = system: MRGPRX4; parameters: method as in PMID 25895059; conditions: ref [10]; read-out: phosphatidylinositol hydrolysis EC50; cited from earlier work

T1 sequence (Q96LA9 whole entry): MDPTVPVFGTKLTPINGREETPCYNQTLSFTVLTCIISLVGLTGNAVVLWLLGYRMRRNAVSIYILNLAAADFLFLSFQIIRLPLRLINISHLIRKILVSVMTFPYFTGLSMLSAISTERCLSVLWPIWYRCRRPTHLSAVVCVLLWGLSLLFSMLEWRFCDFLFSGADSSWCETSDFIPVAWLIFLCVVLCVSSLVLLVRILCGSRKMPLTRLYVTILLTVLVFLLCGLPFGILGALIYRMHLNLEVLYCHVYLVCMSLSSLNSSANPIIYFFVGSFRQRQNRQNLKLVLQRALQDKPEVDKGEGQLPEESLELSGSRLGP

CC(C)[C@H]1CC[C@H](C(=O)N[C@H](Cc2ccccc2)C(=O)O)CC1 [Nateglinide]
BRET2 ratio (mock-transfected cells; 60 s): 0.008415 and 0.007646 and 0.00794
BRET2 ratio (mock-transfected cells; 120 s): 0.007842 and 0.007685 and 0.007289
BRET2 ratio (mock-transfected cells; 180 s): 0.007259 and 0.007981 and 0.007565
BRET2 ratio (mock-transfected cells; 240 s): 0.007155 and 0.006788 and 0.008148
BRET2 ratio (mock-transfected cells; 300 s): 0.007567 and 0.007447 and 0.007514
BRET2 ratio (mock-transfected cells; 360 s): 0.008471 and 0.007058 and 0.007429
BRET2 ratio (mock-transfected cells; 420 s): 0.007097 and 0.007188 and 0.007508
BRET2 ratio (mock-transfected cells; 480 s): 0.006826 and 0.007196 and 0.007205
BRET2 ratio (mock-transfected cells; 540 s): 0.008083 and 0.00749 and 0.00867
BRET2 ratio (mock-transfected cells; 600 s): 0.007686 and 0.006192 and 0.007271
BRET2 ratio (mock-transfected cells; 660 s): 0.006698 and 0.007765 and 0.007192
BRET2 ratio (mock-transfected cells; 720 s): 0.00801 and 0.006623 and 0.005548
BRET2 ratio (mock-transfected cells; 780 s): 0.009777 and 0.007416 and 0.006284
BRET2 ratio (mock-transfected cells; 840 s): 0.007062 and 0.008946 and 0.00672
BRET2 ratio (mock-transfected cells; 900 s): 0.007894 and 0.008249 and 0.007741
BRET2 ratio (mock-transfected cells; 960 s): 0.008424 and 0.006304 and 0.008892
BRET2 ratio (mock-transfected cells; 1020 s): 0.008684 and 0.007837 and 0.007668
BRET2 ratio (mock-transfected cells; 1080 s): 0.008011 and 0.008281 and 0.007344
BRET2 ratio (mock-transfected cells; 1140 s): 0.009425 and 0.00762 and 0.007536
BRET2 ratio (mock-transfected cells; 1200 s): 0.006477 and 0.008078 and 0.009426
BRET2 ratio (mock-transfected cells; 1260 s): 0.008155 and 0.006248 and 0.008937
BRET2 ratio (mock-transfected cells; 1320 s): 0.008765 and 0.01027 and 0.007016
BRET2 ratio (mock-transfected cells; 1380 s): 0.009766 and 0.009472 and 0.01001
decrease in β-arrestin2 recruitment upon nateglinide treatment (MRGPRX4 + RAMP1): ~10%
pEC50 (MRGPRX4 [1]): 5.33
pEC50 (MRGPRX4 [2]): 5.68

Source: PMC10165273, “Itch receptor MRGPRX4 interacts with the receptor activity–modifying proteins” (The Journal of Biological Chemistry, 2023)
